# From patent US7879914B2, “Methods for treating viral infections using polyamine analogs” (Pathlogica LLC, priority 2005, dated 2011)
# Key:
# [1] = tested on: CD14/CD16+ blood macrophages from normal (uninfected) patients; experiment: Susceptibility assay: killing of CD14/CD16+ blood macrophages from normal patients; format: cell-based, human; settings: FIG. 4, ex vivo
# Procedure: The following procedures/protocols were used in some of the examples that follow. All steps were performed in a biological safety cabinet using Universal Precautions for handling human blood samples and standard aseptic techniques.
# The PBMC for the susceptibility assays was prepared in accordance with the following procedures. A cell culture medium was prepared by mixing RPMI+10% FBS+1% sodium pyruvate and filter sterilized using a filter unit with 0.22 micron pore size. The cell pellet was then resuspended in 3 ml of the cell culture medium. The suspension was gently mixed by slowly pipetting up and down 3 times. The cells were counted using a hemacytometer and the cell density was adjusted to 1×10^6 cells/mL in the cell culture medium, followed by mixing by slowly pipetting up and down 3 times. The cells were incubated in a 50 mL sterile polypropylene tube, at 37° C. and 5% CO2 for 1-2 days. […]
# Fluorescence emission measurements were obtained with a flow cytometer, using the following instrument settings in BD FACSCAN: 1) Detector: FL1=533 amps; FL2=570 amps; and FL3=550 amps; 2) Threshold=FSC 180; 3) Compensation: FL1 10.5% FL2; FL2 26.1% FL1; FL2 8.3% FL3; FL3 25.4% FL2; 4) Count=50,000 UNgated events.
# The ability of polyamine analogs MGBG and CG47 to kill CD14/CD16+ blood macrophages in HIV infected and normal patients was measured. […]
# HIV proviral DNA = experiment: HIV proviral load after exposure of mononuclear cells in culture (Example 7); format: cell-based
# Procedure: Mononuclear cells from HIV infected individuals were isolated and exposed to PA-001 in culture under non-adherent conditions for five days. The cells were then separated into CD3+ and CD14+ fractions via antibody-coated magnetic beads using a Miltenyi apparatus. The “-/-” samples represent flow thru after CD3+ and CD14+ cells were removed. Genomic DNA was prepared and then amplified with HIV specific primers and primers homologous to the single copy gene cJun. Results with HIV specific primers were normalized to those obtained with cJun. The number of HIV DNA copies per cellular DNA equivalent after exposure of mononuclear cell cultures from HIV infected individuals to PA-001 under non-adherent conditions for five days is shown in FIG. 7. Results with HIV specific primers were normalized to those obtained with cJun. Each bar represents the mean of three separate determinations. The error bar indicates one standard deviation from the mean. The numbers under the sample designations indicate the % of CD16+ monocytes killed by PA-001. ND=not done.
# CD14+ CD16+ monocytes = experiment: In vitro killing of cultured rhesus macaque monocytes; format: cell-based
# Procedure: Dose response experiments with MGBG were performed to assess its ability to kill CD14+ CD16+ monocytes in nonadherent PBMC cultures.
# SIVmac251 = experiment: SIVmac251-infected, CD8-depleted rhesus macaques, escalating doses; format: in vivo, rhesus macaque
# Procedure: For these experiments, rhesus macaques were infected with SIVmac251 and depleted of CD8+ T lymphocytes by administration of a humanized CD8-depleting antibody. […] These monkeys were then treated with escalating doses of MGBG.
# The animals were treated with MGBG (PA-001) beginning five days post infection (p.i.) with 200 mg/m^2 PA-001, and then treated 7 and 14 days later with 300 mg/m^2 and 400 mg/m^2, respectively of PA-001.
# Rhesus macaques similar to those described in Example 9 were used for these studies. An SIVmac251-infected, CD8-depleted monkey was treated with PA-001 (MGBG) beginning five days p.i. with 200 mg/m^2 PA-001, and then treated 7 and 14 days later with 300 mg/m^2 and 400 mg/m^2, respectively of PA-001. A control monkey was SIVmac251-infected and CD8-depleted, but not treated with PA-001. Blood macrophages from control and treated monkeys were sorted every week into three subsets: CD14+/16−, CD14+/16+ and CD14−/16+ where CD14− indicates a low level of CD14 expression. Quantitative SIV PCR analysis of the sorted subsets was subsequently performed.
SMILES,sensitivity of CD14/CD16+ macrophages from the normal patient [1],HIV proviral load in cells that neither bound to CD14 or CD3 antibodies (HIV proviral DNA; FIG. 7B),"yield of HIV DNA in T cells (HIV proviral DNA; five days, CD3+ fraction)","HIV proviral load in CD14+ cells (HIV proviral DNA; five days, non-adherent conditions)","activated monocytes killed (CD14+ CD16+ monocytes; 10 μM, five-day assay, monkey n=4) [%]","decrease of CD14+ CD16+ monocytes, dose dependence (CD14+ CD16+ monocytes; nonadherent PBMC cultures, five days)","levels of CD14+CD16+ monocytes in blood (SIVmac251; 200, 300, 400 mg/m^2 from five days p.i., by day 21 p.i.)","perivascular cuffs and virus in the CNS (SIVmac251; 21 days p.i., preliminary histopathological analysis)","SIV DNA in sorted blood macrophage subsets (SIVmac251; after the first and second dose, quantitative SIV PCR)",decrease in Mac387 stained monocyte/macrophage cell number in lymph node (SIVmac251; compared to untreated animals),plasma virus versus control (SIVmac251; treated animals vs untreated control)
"CCNCCCNC/C=C\CNCCCNCC.Cl.Cl.Cl.Cl [CG47, N,N′-bis(3-ethylaminopropyl)-cis-but-2-ene-1,4-diamine tetrahydrochloride]",essentially unaffected,,,,,,,,,,
CC(/C=N/NC(=N)N)=N\NC(=N)N [MGBG],,effective in reducing,generally decreased slightly,significant decreases,80,dose-dependent decrease,depleted below detectable levels,did not have perivascular cuffs or detectable virus,no longer had any detectable SIV DNA,50-80%,did not show significant differences
